Values of other authors as cited in patent US4749688A, “Use of neutral metalloendopeptidase inhibitors in the treatment of hypertension” (Schering Corporation, priority 1986, dated 1988).

Assays:
[1] = target: peripheral ACE (Homo sapiens, UniProt P12821)
[2] = in vivo

peripheral ACE, sequence (P12821 30-1306): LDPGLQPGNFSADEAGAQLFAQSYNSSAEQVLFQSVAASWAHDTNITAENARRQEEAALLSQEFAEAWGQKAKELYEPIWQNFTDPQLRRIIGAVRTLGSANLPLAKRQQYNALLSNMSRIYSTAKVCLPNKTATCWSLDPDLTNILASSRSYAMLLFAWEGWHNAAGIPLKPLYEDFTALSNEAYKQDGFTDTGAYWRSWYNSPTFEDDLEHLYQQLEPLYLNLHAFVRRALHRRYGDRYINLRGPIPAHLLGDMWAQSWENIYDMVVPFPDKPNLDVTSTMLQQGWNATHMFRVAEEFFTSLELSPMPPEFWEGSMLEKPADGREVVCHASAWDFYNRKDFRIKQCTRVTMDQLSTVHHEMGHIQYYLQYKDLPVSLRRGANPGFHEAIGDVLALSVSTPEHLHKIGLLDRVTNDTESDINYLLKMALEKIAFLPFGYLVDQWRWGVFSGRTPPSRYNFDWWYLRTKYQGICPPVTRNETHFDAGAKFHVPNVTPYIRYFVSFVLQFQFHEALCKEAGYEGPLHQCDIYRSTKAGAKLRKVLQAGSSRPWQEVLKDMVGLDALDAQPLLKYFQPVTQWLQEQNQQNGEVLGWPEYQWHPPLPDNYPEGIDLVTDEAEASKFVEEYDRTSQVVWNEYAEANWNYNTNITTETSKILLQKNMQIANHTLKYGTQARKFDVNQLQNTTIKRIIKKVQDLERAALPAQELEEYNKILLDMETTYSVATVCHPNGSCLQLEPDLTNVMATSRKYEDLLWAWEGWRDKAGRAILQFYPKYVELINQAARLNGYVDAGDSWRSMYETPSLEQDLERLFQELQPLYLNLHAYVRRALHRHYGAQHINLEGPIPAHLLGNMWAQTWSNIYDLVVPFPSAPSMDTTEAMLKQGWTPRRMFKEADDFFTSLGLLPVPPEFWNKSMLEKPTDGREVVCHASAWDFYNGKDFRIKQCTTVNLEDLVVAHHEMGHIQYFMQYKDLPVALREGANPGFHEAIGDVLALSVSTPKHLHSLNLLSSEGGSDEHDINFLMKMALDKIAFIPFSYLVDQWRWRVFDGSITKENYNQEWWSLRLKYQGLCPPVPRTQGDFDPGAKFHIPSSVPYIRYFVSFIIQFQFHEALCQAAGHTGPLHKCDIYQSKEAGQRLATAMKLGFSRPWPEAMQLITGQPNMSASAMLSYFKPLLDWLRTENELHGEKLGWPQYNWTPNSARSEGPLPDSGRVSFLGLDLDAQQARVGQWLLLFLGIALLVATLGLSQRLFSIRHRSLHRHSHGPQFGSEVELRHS

**Q.** With `O=C(O)CNC(=O)C(CS)Cc1ccccc1` (racemic) [thiorphan, N-[(R,S)-3-mercapto-2-benzylpropanoyl]-glycine] as the compound, how does the “inhibition of peripheral ACE” value [1] read?
**A.** inhibit peripheral ACE

**Q.** What about the blood pressure [2] of the same compound?
**A.** not affected

**Q.** And the heart rate [2]?
**A.** not affected
